Where “and” joins values, the source holds several entries; their conditions need not be identical. Equal entries are not always repeated. Where two headings read alike, the source gives them in different places.
Columns and labels:
IL2 receptors = assay: Effect on IL2 receptor activity (method of Freed); type: cell-based; settings: compared with cyclosporine A
Description: (§1) The effect of CM Peak H on IL1, IL2 and IL2 receptor activity was studied using the method as described in Freed, B. M., Transplantation 43:123, 1987.

LLC-PK1 cells [1] = settings: renal epithelial cell line LLC-PK1; CsA: to 1 ng/ml
LLC-PK1 cells [2] = settings: renal epithelial cell line LLC-PK1
L2 cells [3] = settings: murine lung cell line L2
IL2 = assay: Effect on IL2 (method of Freed); type: cell-based; settings: compared with cyclosporine A
Description: as §1

phospholipase A2 = settings: at concentrations of 1 mg/ml or greater
[4] = test system: Renal glomerular mesangial cells; settings: CsA: to 1 ng/ml, CM effects only at concentrations greater than 1 and 5 μg/ml
L2 cells [5] = settings: murine lung cell line L2; remark: listed apart in the source
[6] = test system: Renal glomerular mesangial cells; settings: CM effects only at concentrations greater than 1 and 5 μg/ml
[7] = test system: Renal glomerular mesangial cells; settings: CM effects only at concentrations greater than 1 and 5 μg/ml; remark: listed apart in the source
[8] = CM extracted from bile of liver transplant recipients, relative area by UV spectroscopy
IL1 = assay: Effect on IL1 (method of Freed); type: cell-based; settings: compared with cyclosporine A
Description: as §1

L2 cells [9] = settings: murine lung cell line L2; remark: listed apart in the source
[10] = for Amount of cyclosporine per liter of bile as determined with internal standard: 100 ml bile extracted, analytical gradient HPLC with CsA internal standard; for Mean % of total concentration of cyclosporine (mean value, n = 5): bile of five CsA treated liver transplant individuals
LLC-PK1 cells [11] = settings: renal epithelial cell line LLC-PK1; 19 h + 5 h incubation
IL2 production = settings: Freed 1987; OL-17 followed by OL-1 and OL-21; cited from earlier work
lymphocyte proliferation = settings: Freed 1987; OL-17 followed by OL-1 and OL-21; cited from earlier work
rat = settings: Ryffel 1988; cited from earlier work

C/C=C/C[C@@H](C)[C@@H](O)[C@H]1C(=O)N[C@@H](CC)C(=O)N(C)CC(=O)N(C)[C@@H](CC(C)C)C(=O)N[C@@H](C(C)C)C(=O)N(C)[C@@H](CC(C)C)C(=O)N[C@@H](C)C(=O)N[C@H](C)C(=O)N(C)[C@@H](CC(C)(C)O)C(=O)N[C@@H](CC(C)C)C(=O)N(C)[C@@H](C(C)C)C(=O)N1C [CM Peak H]
Inhibiting formation of, and action of IL2 receptors (IL2 receptors): as effective as cyclosporine A | Inhibition of protein synthesis (LLC-PK1 cells [1]): no inhibitory effects | Inhibition of RNA synthesis (LLC-PK1 cells [2]): no inhibitory effects | Inhibition of DNA synthesis (L2 cells [3]): no inhibitory effects | Inhibiting formation of, and action of IL2 (IL2): as effective as cyclosporine A | Inhibition of phospholipase A2 activity (phospholipase A2): no such inhibitory activity | Inhibition of protein synthesis [4]: some inhibitory effects | Inhibition of protein synthesis ([4]; listed as Metabolite H): least inhibitory effects | Inhibition of RNA synthesis (L2 cells [5]): no inhibitory effects | Inhibition of DNA synthesis [6]: some inhibitory effects | Inhibition of DNA synthesis ([6]; listed as Metabolite H): least inhibitory effects | Inhibition of RNA synthesis [7]: some inhibitory effects | Inhibition of RNA synthesis ([7]; listed as Metabolite H): least inhibitory effects | Percentage of total CM ([8]; listed as H): 6.3% | Percentage of total CM ([8]; listed as peak H): 6.33% | Inhibiting formation of, and action of IL1 (IL1): as effective as cyclosporine A | Inhibition of protein synthesis (L2 cells [9]): no inhibitory effects | Amount of cyclosporine per liter of bile as determined with internal standard [10]: 536 µg/L | Amount in RIA profile of bile ([10]; bile, gradient HPLC/polyclonal antibody RIA): above 250 μg/L CsA equivalents | Inhibition of DNA synthesis (LLC-PK1 cells [11]): no inhibitory effects

C/C=C/C[C@@H](C)[C@@H](O)[C@H]1C(=O)N[C@@H](CC)C(=O)N(C)CC(=O)N(C)[C@@H](CC(C)C)C(=O)N[C@@H](C(C)C)C(=O)N(C)[C@@H](CC(C)C)C(=O)N[C@@H](C)C(=O)N[C@H](C)C(=O)N(C)[C@@H](CC(C)(C)O)C(=O)N(C)[C@@H](CC(C)C)C(=O)N(C)[C@@H](C(C)C)C(=O)N1C [OL-1, 9-hydroxy cyclosporine A]
Inhibition of protein synthesis (LLC-PK1 cells [1]): no inhibitory effects | Ability to inhibit IL2 production, compared to CsA (IL2 production): comparable effects | Inhibition of RNA synthesis (LLC-PK1 cells [2]): no inhibitory effects | Inhibition of DNA synthesis (L2 cells [3]): no inhibitory effects | Ability to inhibit lymphocyte proliferation in a mixed lymphocyte reaction, compared to CsA (lymphocyte proliferation): comparable effects | Inhibition of protein synthesis [4]: some inhibitory effects | Inhibition of RNA synthesis (L2 cells [5]): no inhibitory effects | Inhibition of DNA synthesis [6]: some inhibitory effects | Inhibition of RNA synthesis [7]: some inhibitory effects | Inhibition of protein synthesis (L2 cells [9]): no inhibitory effects | Amount of cyclosporine per liter of bile as determined with internal standard [10]: 364 µg/L | Inhibition of DNA synthesis (LLC-PK1 cells [11]): no inhibitory effects

CC[C@@H]1NC(=O)[C@H]([C@H](O)[C@H](C)C/C=C/CO)N(C)C(=O)[C@H](C(C)C)N(C)C(=O)[C@H](CC(C)C)N(C)C(=O)[C@H](CC(C)(C)O)N(C)C(=O)[C@@H](C)NC(=O)[C@H](C)NC(=O)[C@H](CC(C)C)N(C)C(=O)[C@H](C(C)C)NC(=O)[C@H](CC(C)C)N(C)C(=O)CN(C)C1=O [OL-8, 1,9 dihydroxy cyclosporine A]
Inhibition of protein synthesis (LLC-PK1 cells [1]): no inhibitory effects | Inhibition of RNA synthesis (LLC-PK1 cells [2]): no inhibitory effects | Inhibition of DNA synthesis (L2 cells [3]): no inhibitory effects | Inhibition of protein synthesis [4]: some inhibitory effects | Inhibition of RNA synthesis (L2 cells [5]): no inhibitory effects | Inhibition of DNA synthesis [6]: some inhibitory effects | Inhibition of RNA synthesis [7]: some inhibitory effects | Inhibition of protein synthesis (L2 cells [9]): no inhibitory effects | Amount of cyclosporine per liter of bile as determined with internal standard [10]: 640 µg/L | Mean % of total concentration of cyclosporine (mean value, n = 5) [10]: 10.86 ± 2.4% and 11% | Inhibition of DNA synthesis (LLC-PK1 cells [11]): no inhibitory effects

CC[C@@H]1NC(=O)[C@H]([C@H](O)[C@H](C)C/C=C/CO)N(C)C(=O)[C@H](C(C)C)N(C)C(=O)[C@H](CC(C)C)N(C)C(=O)[C@H](CC(C)C)N(C)C(=O)[C@@H](C)NC(=O)[C@H](C)NC(=O)[C@H](CC(C)C)N(C)C(=O)[C@H](C(C)C)NC(=O)[C@H](CC(C)C)N(C)C(=O)CN(C)C1=O [OL-17, 1-hydroxy cyclosporine A]
Inhibition of protein synthesis (LLC-PK1 cells [1]): no inhibitory effects | Ability to inhibit IL2 production, compared to CsA (IL2 production): comparable effects | Inhibition of RNA synthesis (LLC-PK1 cells [2]): no inhibitory effects | Toxicity in vivo (rat): not toxic | Inhibition of DNA synthesis (L2 cells [3]): no inhibitory effects | Ability to inhibit lymphocyte proliferation in a mixed lymphocyte reaction, compared to CsA (lymphocyte proliferation): comparable effects | Inhibition of protein synthesis [4]: some inhibitory effects | Inhibition of RNA synthesis (L2 cells [5]): no inhibitory effects | Inhibition of DNA synthesis [6]: some inhibitory effects | Inhibition of RNA synthesis [7]: some inhibitory effects | Inhibition of protein synthesis (L2 cells [9]): no inhibitory effects | Amount of cyclosporine per liter of bile as determined with internal standard [10]: 853 µg/L | Mean % of total concentration of cyclosporine (mean value, n = 5) [10]: 16.00 ± 4.4% and 16% | Inhibition of DNA synthesis (LLC-PK1 cells [11]): no inhibitory effects

— patent US5202310A, “Cyclosporine metabolites” (priority 1990, dated 1993)
